From publication PMC9329436, “Optimization of the 4-anilinoquin(az)oline scaffold as epidermal growth factor receptor (EGFR) inhibitors for chordoma utilizing a toxicology profiling assay platform” (Scientific Reports, 2022)
pIC50: −log10 of the molar value.

Legend:
HL60 cells = assay: AsedaSciences SYSTEMETRIC Cell Health Screen (flow cytometry toxicity profiling); conditions: for CC: Cell Cycle score / CM: Cell morphology score / CMI: Cell membrane integrity score / GSH: Glutathione score / MMP: Mitochondrial membrane depolarization score / NMI1: Nuclear membrane integrity 1 score / NMI2: Nuclear membrane integrity 2 score / ROS: Reactive superoxide species score / CHI: Cell Health Index: HL60, 4 h, 5 nM–100 µM; for CC: Cell Cycle score / CM: Cell morphology score / CMI: Cell membrane integrity score / GSH: Glutathione score / MMP: Mitochondrial membrane depolarization score / NMI1: Nuclear membrane integrity 1 score / NMI2: Nuclear membrane integrity 2 score / ROS: Reactive superoxide species score: probability 0–1, n = 2; for CHI: Cell Health Index: probability (0–1) of high-risk class, n = 2; for Cell Health Toxcity Profile CC (DyeCycle Violet) / Cell Health Toxcity Profile CM (Cell morphology) / Cell Health Toxcity Profile CMI (Cell membrane integrity) / Cell Health Toxcity Profile GSH (Glutathione) / Cell Health Toxcity Profile MMP (Mitochondrial membrane depolarization) / Cell Health Toxcity Profile NMI1 (Nuclear membrane integrity 1) / Cell Health Toxcity Profile NMI2 (Nuclear membrane integrity 2) / Cell Health Toxcity Profile ROS (Reactive superoxide species) / Cell Health Toxcity Profile CHI: SYSTEMETRIC Cell Health Screen, assay n=2; for Cell Health Toxcity Profile CHI: classifier output
Outline: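 Risk scores derive from a logistic-regression ML classifier comparing flow-cytometric stress phenotypes with those of 300 reference compounds of known high or low human risk. Phenotypes: light scatter plus fluorescent physiological dyes, twelve parameters, no gating. Compounds tested 5 nM–100 µM (3× steps, duplicate) on HL60 cells, 4 h, 37 °C.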

U-CH2 chordoma cell line = assay: Cell viability assay (alamarBlue, 72 h), U-CH2; assay type: cell-based, human
Protocol: (§1) Chordoma cell lines were cultured as described previously[10],[12],[33],[34]. Briefly, U-CH1 and U-CH2 cell lines were cultured in 4:1 IMDM:RPMI medium supplemented with 10% fetal bovine serum (FBS) and 1% penicillin/streptomycin in gel-coated flasks. […] CH22, UM-Chor1, U-CH12, and U-CH7 cell lines were cultured in RPMI medium supplemented with 10% FBS and 1% penicillin/streptomycin. The cell lines all undergo regular mycoplasma screening.
(§2) Cells were seeded in 384 well plates and were treated with test compound in quadruplicate 24 h after plating. Cell viability was assessed at 72 h using alamarBlue (ThermoFisher, USA). […] IC50 values were determined by four-parameter nonlinear regression analyses using GraphPad Prism™ version 8 software (San Diego, CA).

U-CH1 chordoma cell line = assay: Cell viability assay (alamarBlue, 72 h), U-CH1; assay type: cell-based, human
Protocol: as §1, §2

SMILES	CC: Cell Cycle score (HL60 cells)	CM: Cell morphology score (HL60 cells)	CMI: Cell membrane integrity score (HL60 cells)	GSH: Glutathione score (HL60 cells)	MMP: Mitochondrial membrane depolarization score (HL60 cells)	NMI1: Nuclear membrane integrity 1 score (HL60 cells)	NMI2: Nuclear membrane integrity 2 score (HL60 cells)	ROS: Reactive superoxide species score (HL60 cells)	CHI: Cell Health Index (HL60 cells)	pIC50 (U-CH2 chordoma cell line; n = 4, 72 h)	pIC50 (U-CH1 chordoma cell line; n = 4, 72 h)	also measured
C#Cc1cccc(Nc2ncnc3ccccc23)c1 [Compound 3]	0.86	0.96	0.99	0.98	1.00	0.53	0.76	0.98	0.74	4.28	4.46	
C#Cc1cccc(Nc2ncnc3ccc(C)cc23)c1 [Compound 4]	0.65	0.0051	0.21	0.12	0.49	0.059	0.17	0.20	0.31	< 4.00	4.82	
C#Cc1cccc(Nc2ncnc3ccc(F)cc23)c1 [Compound 5]	0.34	0.0041	0.091	0.087	0.26	0.082	0.11	0.34	0.26	< 4.00	4.72	
C#Cc1cccc(Nc2ncnc3ccc(Cl)cc23)c1 [Compound 7]	0.10	0.0047	0.030	0.011	0.015	0.13	0.053	0.20	0.16	< 4.00	4.60	
C#Cc1cccc(Nc2ncnc3ccc(Br)cc23)c1 [Compound 8]	0.087	0.0037	0.0024	0.05	0.11	0.13	0.020	0.083	0.19	< 4.00	4.80	
C#Cc1cccc(Nc2ncnc3ccc(C(F)(F)F)cc23)c1 [Compound 10]	0.59	0.058	0.045	0.004	0.74	0.21	0.19	0.77	0.40	4.38	4.68	
C#Cc1cccc(Nc2ncnc3cc(F)ccc23)c1 [Compound 12]	0.59	0.058	0.045	0.004	0.74	0.21	0.19	0.77	0.40	< 4.00	4.39	
C#Cc1cccc(Nc2ncnc3cc(Br)ccc23)c1 [Compound 14]	0.74	0.024	0.41	0.010	0.17	0.033	0.3	0.86	0.33	< 4.00	4.27	
C#Cc1cccc(Nc2ncnc3ccc(C#N)cc23)c1 [Compound 18]	0.27	0.0026	0.0079	0.023	0.11	0.33	0.094	0.042	0.18	< 4.00	4.13	
C#Cc1cccc(Nc2ncnc3ccc(S(C)(=O)=O)cc23)c1 [Compound 19]	0.33	0.0013	0.0057	0.044	0.21	0.36	0.089	0.055	0.22	4.28	4.35	
C#Cc1cccc(Nc2ncnc3cc4c(cc23)OCO4)c1 [Compound 20]	0.13	0.0019	0.0038	0.087	0.016	0.72	0.0045	0.027	0.18	< 4.00	4.66	
C#Cc1cccc(Nc2c(C#N)cnc3cc(OC)c(OC)cc23)c1 [Compound 22, 4-((3-ethynylphenyl)amino)-6,7-dimethoxyquinoline-3-carbonitrile]												Cell Health Toxcity Profile CC (DyeCycle Violet) (HL60 cells): 0.33; Cell Health Toxcity Profile CM (Cell morphology) (HL60 cells): 0.35; Cell Health Toxcity Profile CMI (Cell membrane integrity) (HL60 cells): 0.77; Cell Health Toxcity Profile GSH (Glutathione) (HL60 cells): 0.071; Cell Health Toxcity Profile MMP (Mitochondrial membrane depolarization) (HL60 cells): 0.39; Cell Health Toxcity Profile NMI1 (Nuclear membrane integrity 1) (HL60 cells): 0.67; Cell Health Toxcity Profile NMI2 (Nuclear membrane integrity 2) (HL60 cells): 0.29; Cell Health Toxcity Profile ROS (Reactive superoxide species) (HL60 cells): 0.81; Cell Health Toxcity Profile CHI (HL60 cells): 0.40; pIC50 (U-CH2 chordoma cell line; Homo sapiens, UCH2, n = 4, 72 h): 4.44; pIC50 (U-CH1 chordoma cell line; Homo sapiens, UCH1, n = 4, 72 h): 5.39
C#Cc1cccc(Nc2c(C#N)cnc3ccc(OC)cc23)c1 [Compound 23]										< 4.00	4.70	Cell Health Toxcity Profile CC (DyeCycle Violet) (HL60 cells): 0.74; Cell Health Toxcity Profile CM (Cell morphology) (HL60 cells): 0.020; Cell Health Toxcity Profile CMI (Cell membrane integrity) (HL60 cells): 0.0039; Cell Health Toxcity Profile GSH (Glutathione) (HL60 cells): 0.0085; Cell Health Toxcity Profile MMP (Mitochondrial membrane depolarization) (HL60 cells): 0.28; Cell Health Toxcity Profile NMI1 (Nuclear membrane integrity 1) (HL60 cells): 0.30; Cell Health Toxcity Profile NMI2 (Nuclear membrane integrity 2) (HL60 cells): 0.11; Cell Health Toxcity Profile ROS (Reactive superoxide species) (HL60 cells): 0.056; Cell Health Toxcity Profile CHI (HL60 cells): 0.26
C#Cc1cccc(Nc2c(C#N)cnc3ccccc23)c1 [Compound 24]										< 4.00	4.47	Cell Health Toxcity Profile CC (DyeCycle Violet) (HL60 cells): 0.76; Cell Health Toxcity Profile CM (Cell morphology) (HL60 cells): 0.99; Cell Health Toxcity Profile CMI (Cell membrane integrity) (HL60 cells): 1.00; Cell Health Toxcity Profile GSH (Glutathione) (HL60 cells): 0.98; Cell Health Toxcity Profile MMP (Mitochondrial membrane depolarization) (HL60 cells): 0.97; Cell Health Toxcity Profile NMI1 (Nuclear membrane integrity 1) (HL60 cells): 0.85; Cell Health Toxcity Profile NMI2 (Nuclear membrane integrity 2) (HL60 cells): 0.81; Cell Health Toxcity Profile ROS (Reactive superoxide species) (HL60 cells): 0.98; Cell Health Toxcity Profile CHI (HL60 cells): 0.70
